{
  "source": "patent EP4553080A1",
  "about": "“NUCLEOSIDE DERIVATIVES AS ANTIVIRAL AGENTS AGAINST CORONAVIRUSES” (Ustav Organicke Chemie a Biochemie AV CR, v.v.i., priority 2023, dated 2025)",
  "data": [
    {"target": "nsp14 methyltransferase from SARS-CoV-2 (Severe acute respiratory syndrome coronavirus 2, UniProt P0DTD1)", "test": "Nsp14 MTase activity inhibition in vitro (EchoMS assay)", "type": "biochemical", "conditions": "not given", "units": {"IC50": "nM"}, "values": [
      {"smiles": "Cc1noc(Cc2ccccc2)c1CSC[C@H]1O[C@@H](n2ccc3c(N)ncnc32)[C@H](O)[C@@H]1O", "note": "[Compound 99c, (2R,3R,4S,5S)-2-(4-Amino-7H-pyrrolo[2,3-d]pyrimidin-7H-yl)-5-((((5-benzyl-3-methylisoxazol-4-yl)methyl)thio)methyl)tetrahydrofuran-3,4-diol]", "IC50": "2000 to 5000"}
    ]},
    {"target": "nsp14 methyltransferase from SARS-CoV-2 (Severe acute respiratory syndrome coronavirus 2, UniProt P0DTD1)", "test": "Nsp14 MTase activity inhibition in vitro (EchoMS assay)", "type": "biochemical", "conditions": "recombinant nsp14 protein expressed in E. coli; dose-response curve", "units": {"IC50": "nM"}, "values": [
      {"smiles": "Cc1noc(C2CCCCC2)c1CSC[C@H]1O[C@@H](n2ccc3c(N)ncnc32)[C@H](O)[C@@H]1O", "note": "[Compound 98c, (2R,3R,4S,5S)-2-(4-Amino-7H-pyrrolo[2,3-d]pyrimidin-7-yl)-5-((((5-cyclohexyl-3-methylisoxazol-4-yl)methyl)thio)methyl)tetrahydrofuran-3,4-diol]", "IC50": "500 to 2000"},
      {"smiles": "Nc1ncnc2c1ccn2[C@@H]1O[C@H](CSCc2c(-c3ccccc3)noc2C2CC2)[C@@H](O)[C@H]1O", "note": "[Compound 108c, (2R,3R,4S,5S)-2-(4-Amino-7H-pyrrolo[2,3-d]pyrimidin-7-yl)-5-((((5-cyclopropyl-3-phenylisoxazol-4-yl)methyl)thio)methyl)tetrahydrofuran-3,4-diol]", "IC50": "100 to 500"},
      {"smiles": "Cc1noc(-c2ccccc2)c1CSC[C@H]1O[C@@H](n2nc(-c3cccc(C(N)=O)c3)c3c(N)ncnc32)[C@H](O)[C@@H]1O", "note": "[Compound 221b, 3-(4-Amino-1-((2R,3R,4S,5S)-3,4-dihydroxy-5-((((3-methyl-5-phenylisoxazol-4-yl)methyl)thio)methyl)tetrahydrofuran-2-yl)-1H-pyrazolo[3,4-d]pyrimidin-3-yl)benzamide]", "IC50": "30 to 100"},
      {"smiles": "Cc1snc(-c2ccccc2)c1CSC[C@H]1O[C@@H](n2ccc3c(N)ncnc32)[C@H](O)[C@@H]1O", "note": "[Compound 59c, (2R,3R,4S,5S)-2-(4-Amino-7H-pyrrolo[2,3-d]pyrimidin-7-yl)-5-((((5-methyl-3-phenylisothiazol-4-yl)methyl)thio)methyl)tetrahydrofuran-3,4-diol]", "IC50": "30 to 100"},
      {"smiles": "Cc1noc(-c2ccccc2)c1CSC[C@H]1O[C@@H](n2cc(F)c3c(N)ncnc32)[C@H](O)[C@@H]1O", "note": "[Compound 128, (2R,3R,4S,5S)-2-(4-Amino-5-fluoro-7H-pyrrolo[2,3-d]pyrimidin-7-yl)-5-((((3-methyl-5-phenylisoxazol-4-yl)methyl)thio)methyl)tetrahydrofuran-3,4-diol]", "IC50": "100 to 500"},
      {"smiles": "Cc1ccnc(-c2ccccc2)c1CSC[C@H]1O[C@@H](n2ccc3c(N)ncnc32)[C@H](O)[C@@H]1O", "note": "[Compound 62c, (2R,3R,4S,5S)-2-(4-Amino-7H-pyrrolo[2,3-d]pyrimidin-7-yl)-5-((((4-methyl-2-phenylpyridin-3-yl)methyl)thio)methyl)tetrahydrofuran-3,4-diol]", "IC50": "500 to 2000"},
      {"smiles": "Cc1noc(-c2ccccc2)c1CSC[C@H]1O[C@@H](n2nc(C#Cc3cncnc3)c3c(N)ncnc32)[C@H](O)[C@@H]1O", "note": "[Compound 218b]", "IC50": "30 to 100"},
      {"smiles": "Cc1noc(-c2ccccc2)c1CSC[C@H]1O[C@@H](n2cc(I)c3c(N)ncnc32)[C@H](O)[C@@H]1O", "note": "[Compound 123, (2R,3R,4S,5S)-2-(4-Amino-5-iodo-7H-pyrrolo[2,3-d]pyrimidin-7-yl)-5-((((3-methyl-5-phenylisoxazol-4-yl)methyl)thio)methyl)tetrahydrofuran-3,4-diol]", "IC50": "30 to 100"},
      {"smiles": "Cc1noc(-c2ccccc2)c1CSC[C@H]1O[C@@H](n2nc(-c3ccc(C#N)cc3)c3c(N)ncnc32)[C@H](O)[C@@H]1O", "note": "[Compound 219b, 4-(4-Amino-1-((2R,3R,4S,5S)-3,4-dihydroxy-5-((((3-methyl-5-phenylisoxazol-4-yl)methyl)thio)methyl)tetrahydrofuran-2-yl)-1H-pyrazolo[3,4-d]pyrimidin-3-yl)benzonitrile]", "IC50": "30 to 100"},
      {"smiles": "Cc1noc(-c2ccccc2)c1CSC[C@H]1O[C@@H](n2cc(CC3CCCCC3)c3c(N)ncnc32)[C@H](O)[C@@H]1O", "note": "[Compound 135b, (2R,3R,4S,5S)-2-(4-Amino-5-(cyclohexylmethyl)-7H-pyrrolo[2,3-d]pyrimidin-7-yl)-5-((((3-methyl-5-phenylisoxazol-4-yl)methyl)thio)methyl)tetrahydrofuran-3,4-diol]", "IC50": "500 to 2000"},
      {"smiles": "Cn1nnc(-c2ccccc2)c1CSC[C@H]1O[C@@H](n2ccc3c(N)ncnc32)[C@H](O)[C@@H]1O", "note": "[Compound 55c, (2R,3R,4S,5S)-2-(4-Amino-7H-pyrrolo[2,3-d]pyrimidin-7-yl)-5-((((1-methyl-4-phenyl-1H-1,2,3-triazol-5-yl)methyl)thio)methyl)tetrahydrofuran-3,4-diol]", "IC50": "30 to 100"},
      {"smiles": "Cc1nsc(-c2ccccc2)c1CSC[C@H]1O[C@@H](n2cc(I)c3c(N)ncnc32)[C@H](O)[C@@H]1O", "note": "[Compound 245, (2R,3R,4S,5S)-2-(4-Amino-5-iodo-7H-pyrrolo[2,3-d]pyrimidin-7-yl)-5-((((3-methyl-5-phenylisothiazol-4-yl)methyl)thio)methyl)tetrahydrofuran-3,4-diol]", "IC50": "30 to 100"},
      {"smiles": "Cc1noc(-c2ccccc2)c1CSC[C@H]1O[C@@H](n2cc(-c3cncn3C)c3c(N)ncnc32)[C@H](O)[C@@H]1O", "note": "[Compound 155, (2R,3R,4S,5S)-2-(4-Amino-5-(1-methyl-1H-imidazol-5-yl)-7H-pyrrolo[2,3-d]pyrimidin-7-yl)-5-((((3-methyl-5-phenylisoxazol-4-yl)methyl)thio)methyl)tetrahydrofuran-3,4-diol]", "IC50": "30 to 100"},
      {"smiles": "Cc1noc(-c2ccccc2)c1CSC[C@H]1O[C@@H](n2cc(/C=C/c3ccccc3)c3c(N)ncnc32)[C@H](O)[C@@H]1O", "note": "[Compound 181b, (2R,3R,4S,5S)-2-(4-Amino-5-((E)-styryl)-7H-pyrrolo[2,3-d]pyrimidin-7-yl)-5-((((3-methyl-5-phenylisoxazol-4-yl)methyl)thio)methyl)tetrahydrofuran-3,4-diol]", "IC50": "100 to 500"},
      {"smiles": "COc1ncnc(-c2ccccc2)c1CSC[C@H]1O[C@@H](n2ccc3c(N)ncnc32)[C@H](O)[C@@H]1O", "note": "[Compound 110c, (2R,3R,4S,5S)-2-(4-Amino-7H-pyrrolo[2,3-d]pyrimidin-7-yl)-5-((((4-methoxy-6-phenylpyrimidin-5-yl)methyl)thio)methyl)tetrahydrofuran-3,4-diol]", "IC50": "500 to 2000"},
      {"smiles": "Cc1noc(-c2ccccc2)c1CSC[C@H]1O[C@@H](n2cc(C#Cc3cnc4ccccc4c3)c3c(N)ncnc32)[C@H](O)[C@@H]1O", "note": "[Compound 176b, (2R,3R,4S,5S)-2-(4-Amino-5-(quinolin-3-ylethynyl)-7H-pyrrolo[2,3-d]pyrimidin-7-yl)-5-((((3-methyl-5-phenylisoxazol-4-yl)methyl)thio)methyl)tetrahydrofuran-3,4-diol]", "IC50": "100 to 500"},
      {"smiles": "CCc1cn([C@@H]2O[C@H](CSCc3c(C)noc3-c3ccccc3)[C@@H](O)[C@H]2O)c2ncnc(N)c12", "note": "[Compound 142, (2R,3R,4S,5S)-2-(4-Amino-5-ethyl-7H-pyrrolo[2,3-d]pyrimidin-7-yl)-5-((((3-methyl-5-phenylisoxazol-4-yl)methyl)thio)methyl)tetrahydrofuran-3,4-diol]", "IC50": "30 to 100"},
      {"smiles": "C#Cc1cn([C@@H]2O[C@H](CSCc3c(C)noc3-c3ccccc3)[C@@H](O)[C@H]2O)c2ncnc(N)c12", "note": "[Compound 140b, (2R,3R,4S,5S)-2-(4-Amino-5-ethynyl-7H-pyrrolo[2,3-d]pyrimidin-7-yl)-5-((((3-methyl-5-phenylisoxazol-4-yl)methyl)thio)methyl)tetrahydrofuran-3,4-diol]", "IC50": "30 to 100"},
      {"smiles": "Cn1ncc(-c2ccccc2)c1CSC[C@H]1O[C@@H](n2ccc3c(N)ncnc32)[C@H](O)[C@@H]1O", "note": "[Compound 60c, (2R,3R,4S,5S)-2-(4-Amino-7H-pyrrolo[2,3-d]pyrimidin-7-yl)-5-((((1-methyl-4-phenyl-1H-pyrazol-5-yl)methyl)thio)methyl)tetrahydrofuran-3,4-diol]", "IC50": "30 to 100"},
      {"smiles": "Cn1cnc(-c2ccccc2)c1CSC[C@H]1O[C@@H](n2cc(C#Cc3cncnc3)c3c(N)ncnc32)[C@H](O)[C@@H]1O", "note": "[Compound 237c, (2R,3R,4S,5S)-2-(4-Amino-5-(pyrimidin-5-ylethynyl)-7H-pyrrolo[2,3-d]pyrimidin-7-yl)-5-((((1-methyl-4-phenyl-1H-imidazol-5-yl)methyl)thio)methyl)tetrahydrofuran-3,4-diol]", "IC50": "30 to 100"},
      {"smiles": "Cc1ncnc(-c2ccccc2)c1CSC[C@H]1O[C@@H](n2cc(-c3ccc(C#N)cc3)c3c(N)ncnc32)[C@H](O)[C@@H]1O", "note": "[Compound 232b, 4-(4-Amino-7-((2R,3R,4S,5S)-3,4-dihydroxy-5-((((4-methyl-6-phenylpyrimidin-5-yl)methyl)thio)methyl)tetrahydrofuran-2-yl)-7H-pyrrolo[2,3-d]pyrimidin-5-yl)benzonitrile]", "IC50": "30 to 100"},
      {"smiles": "Cc1scc(-c2ccccc2)c1CSC[C@H]1O[C@@H](n2ccc3c(N)ncnc32)[C@H](O)[C@@H]1O", "note": "[Compound 52c, (2R,3R,4S,5S)-2-(4-Amino-7H-pyrrolo[2,3-d]pyrimidin-7-yl)-5-((((2-methyl-4-phenylthiophen-3-yl)methyl)thio)methyl)tetrahydrofuran-3,4-diol]", "IC50": "500 to 2000"},
      {"smiles": "Cc1noc(-c2ccccc2)c1CSC[C@H]1O[C@@H](n2ccc3c(N)nc(F)nc32)[C@H](O)[C@@H]1O", "note": "[Compound 198, (2R,3R,4S,5S)-2-(4-Amino-2-fluoro-7H-pyrrolo[2,3-d]pyrimidin-7-yl)-5-((((3-methyl-5-phenylisoxazol-4-yl)methyl)thio)methyl)tetrahydrofuran-3,4-diol]", "IC50": "30 to 100"},
      {"smiles": "Nc1ncnc2c1ccn2[C@@H]1O[C@H](CSCc2csnc2-c2ccccc2)[C@@H](O)[C@H]1O", "note": "[Compound 105c, (2R,3R,4S,5S)-2-(4-Amino-7H-pyrrolo[2,3-d]pyrimidin-7-yl)-5-((((3-phenylisothiazol-4-yl)methyl)thio)methyl)tetrahydrofuran-3,4-diol]", "IC50": "500 to 2000"},
      {"smiles": "Cc1noc(-c2ccccc2)c1CSC[C@H]1O[C@@H](n2cc(C#Cc3cnc4ccccc4n3)c3c(N)ncnc32)[C@H](O)[C@@H]1O", "note": "[Compound 177b, (2R,3R,4S,5S)-2-(4-Amino-5-(quinoxalin-2-ylethynyl)-7H-pyrrolo[2,3-d]pyrimidin-7-yl)-5-((((3-methyl-5-phenylisoxazol-4-yl)methyl)thio)methyl)tetrahydrofuran-3,4-diol]", "IC50": "30 to 100"}
    ]}
  ]
}
